From article PMC11079024, “Identification of a family of species-selective complex I inhibitors as potential anthelmintics” (Nature Communications, 2024)
Where two headings read alike, the source gives them in different places.

Columns and labels:
[1] = biological target: B. taurus (heart) complex I (Bos taurus, UniProt P03887+P17694+P42026); test: biochemical; assay type: biochemical; settings: for IC50: B. taurus heart mitochondria, read-out: B. taurus Complex I IC50; for activity at 0.0001 µM / activity at 0.0005 µM / activity at 0.001 µM / activity at 0.0025 µM / activity at 0.005 µM / activity at 0.013 µM / activity at 0.025 µM / activity at 0.063 µM / activity at 0.125 µM / activity at 0.313 µM / activity at 0.625 µM / activity at 1.5 µM / activity at 3 µM / activity at 15 µM / activity at 37.5 µM / activity at 75 µM: read-out: B. taurus mitochondrial complex I activity; for Log IC50 B. taurus complex I: log10 of IC50 in µM, B. taurus mitochondria
Method in brief: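 Complex I activity followed as DCIP reduction (600 nm, 30 s reads, 15 min) with 80 μM NADH and 60 μM decylubiquinone in 25 mM KPi pH 7.5 containing 2 μM antimycin A and 2 mM KCN. Freeze-thawed mouse or bovine heart mitochondria at 0.2 mg/mL; initial-rate percent of solvent control, single-point 100 μM or dose-response.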

[2] = tested on: L1 wild-type C. elegans; test: microbe, parasite or virus in culture; settings: Caenorhabditis elegans, read-out: C. elegans KCN Survival Assay LC50, estimated from fitted dose-response curves; mean of at least two biological replicates
[3] = biological target: C. elegans (N2) complex I (NADH:ubiquinone oxidoreductase) (Caenorhabditis elegans, UniProt P24887+Q93873+Q94360); test: biochemical; assay type: biochemical; settings: for activity at 0.0001 µM / activity at 0.0005 µM / activity at 0.001 µM / activity at 0.0025 µM / activity at 0.005 µM / activity at 0.013 µM / activity at 0.025 µM / activity at 0.063 µM / activity at 0.125 µM / activity at 0.313 µM / activity at 0.625 µM / activity at 1.5 µM / activity at 3 µM / activity at 15 µM / activity at 37.5 µM / activity at 75 µM: read-out: C. elegans mitochondrial complex I activity; for Log IC50 C. elegans complex I: log10 of IC50 in µM, C. elegans mitochondria
Method in brief: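 Complex I rate: initial linear slope of A600 over 15 min, expressed as percent of solvent control. Triple freeze-thawed mitochondria (0.2 mg/mL) in KPi pH 7.5, BSA 3 mg/mL, NADH 80 μM, decylubiquinone 60 μM, DCIP 160 μM, antimycin A, KCN.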

[4] = estimated from fitted dose-response curves
[5] = in vitro complex I dose response on C. elegans mitochondria, average of at least two biological replicates, fit in R (DRC), read-out: IC50 C. elegans complex I
[6] = wild-type C. elegans mitochondria, estimated from fitted dose-response curves, read-out: C. elegans Complex I IC50
[7] = wild-type (N2) mitochondria, read-out: C. elegans Complex I IC50

B. taurus (heart) complex I, sequence (P03887 whole entry): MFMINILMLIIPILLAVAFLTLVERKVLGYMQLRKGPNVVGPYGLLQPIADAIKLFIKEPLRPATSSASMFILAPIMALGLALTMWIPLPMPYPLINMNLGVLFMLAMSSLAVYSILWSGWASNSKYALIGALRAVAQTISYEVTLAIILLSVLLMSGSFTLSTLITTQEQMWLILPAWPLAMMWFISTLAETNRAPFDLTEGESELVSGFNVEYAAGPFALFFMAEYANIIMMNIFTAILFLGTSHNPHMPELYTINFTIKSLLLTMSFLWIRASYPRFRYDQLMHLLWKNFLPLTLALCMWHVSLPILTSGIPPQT
B. taurus (heart) complex I, sequence (P17694 34-463): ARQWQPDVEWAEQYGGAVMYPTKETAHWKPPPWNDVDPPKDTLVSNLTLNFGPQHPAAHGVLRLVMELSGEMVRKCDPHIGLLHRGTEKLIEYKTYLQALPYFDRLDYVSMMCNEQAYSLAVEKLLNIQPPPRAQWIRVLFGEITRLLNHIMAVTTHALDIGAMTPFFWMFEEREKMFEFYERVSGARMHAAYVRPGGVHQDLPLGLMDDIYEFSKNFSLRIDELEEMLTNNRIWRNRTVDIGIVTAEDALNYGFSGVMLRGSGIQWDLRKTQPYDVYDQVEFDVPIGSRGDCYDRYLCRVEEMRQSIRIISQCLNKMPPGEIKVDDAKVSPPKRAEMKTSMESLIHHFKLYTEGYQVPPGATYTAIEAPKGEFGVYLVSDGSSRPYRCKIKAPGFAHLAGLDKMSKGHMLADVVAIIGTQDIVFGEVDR
B. taurus (heart) complex I, sequence (P42026 38-216): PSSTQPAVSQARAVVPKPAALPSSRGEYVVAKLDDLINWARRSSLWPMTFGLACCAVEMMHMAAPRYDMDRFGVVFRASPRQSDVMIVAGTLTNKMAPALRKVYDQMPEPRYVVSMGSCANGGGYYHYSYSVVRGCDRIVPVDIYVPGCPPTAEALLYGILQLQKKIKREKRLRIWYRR
C. elegans (N2) complex I (NADH:ubiquinone oxidoreductase), sequence (Q94360 17-199): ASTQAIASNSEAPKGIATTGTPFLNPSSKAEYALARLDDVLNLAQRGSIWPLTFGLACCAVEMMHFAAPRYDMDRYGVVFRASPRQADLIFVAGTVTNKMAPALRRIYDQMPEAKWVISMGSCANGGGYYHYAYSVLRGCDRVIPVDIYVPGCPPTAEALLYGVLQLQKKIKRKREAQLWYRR
C. elegans (N2) complex I (NADH:ubiquinone oxidoreductase), sequence (P24887 whole entry): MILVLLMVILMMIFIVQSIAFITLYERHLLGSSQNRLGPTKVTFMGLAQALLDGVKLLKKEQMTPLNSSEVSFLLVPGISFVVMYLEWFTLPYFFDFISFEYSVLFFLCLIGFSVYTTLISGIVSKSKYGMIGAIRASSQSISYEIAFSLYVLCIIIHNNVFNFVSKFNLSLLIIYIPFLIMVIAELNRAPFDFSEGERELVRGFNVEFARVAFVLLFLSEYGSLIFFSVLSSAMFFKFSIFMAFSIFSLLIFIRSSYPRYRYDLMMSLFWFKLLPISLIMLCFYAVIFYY
C. elegans (N2) complex I (NADH:ubiquinone oxidoreductase), sequence (Q93873 31-482): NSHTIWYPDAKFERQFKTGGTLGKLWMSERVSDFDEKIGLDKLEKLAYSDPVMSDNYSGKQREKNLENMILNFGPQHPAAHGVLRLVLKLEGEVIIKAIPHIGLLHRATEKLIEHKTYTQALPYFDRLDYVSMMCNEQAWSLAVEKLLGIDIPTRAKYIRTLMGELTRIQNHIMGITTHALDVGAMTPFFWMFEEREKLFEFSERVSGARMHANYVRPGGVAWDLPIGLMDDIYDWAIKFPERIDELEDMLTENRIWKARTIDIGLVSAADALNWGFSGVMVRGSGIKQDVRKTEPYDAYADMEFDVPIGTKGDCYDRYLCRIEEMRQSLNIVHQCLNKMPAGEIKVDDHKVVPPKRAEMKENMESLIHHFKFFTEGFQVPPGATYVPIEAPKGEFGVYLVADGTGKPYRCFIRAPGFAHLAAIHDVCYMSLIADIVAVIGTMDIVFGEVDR

| Structure (SMILES) | IC50 [1, 4] [nM] | activity at 0.0001 µM [1] [%] | activity at 0.0005 µM [1] [%] | activity at 0.001 µM [1] [%] | activity at 0.0025 µM [1] [%] | activity at 0.005 µM [1] [%] | activity at 0.013 µM [1] [%] | activity at 0.025 µM [1] [%] | activity at 0.063 µM [1] [%] | activity at 0.125 µM [1] [%] | activity at 0.313 µM [1] [%] | activity at 0.625 µM [1] [%] | activity at 1.5 µM [1] [%] | activity at 3 µM [1] [%] | activity at 15 µM [1] [%] | activity at 37.5 µM [1] [%] | Log IC50 B. taurus complex I [1] [µM] | LC50 [2] [nM] | IC50 [3, 5] [nM] | Log IC50 C. elegans complex I [3] [µM] | further results |
| --- | --- | --- | --- | --- | --- | --- | --- | --- | --- | --- | --- | --- | --- | --- | --- | --- | --- | --- | --- | --- | --- |
| Cc1ccc(SCCCn2cnc3ccccc32)cc1 [Compound 7926035] | 3590 | 101 | 105 | 99.3 | 106 | 102 | 101 | 100 | 98.8 | 97 | 98.3 | 78.8 | 78.8 | 41.2 | 10 | 2.81 | 0.56 | 4710 | 540 | -0.27 | activity at 75 µM [1]: 1.94%; activity at 0.0001 µM [3]: 90.2%; activity at 0.0005 µM [3]: 95.5%; activity at 0.001 µM [3]: 88.3%; activity at 0.0025 µM [3]: 100%; activity at 0.005 µM [3]: 101%; activity at 0.013 µM [3]: 96.9%; activity at 0.025 µM [3]: 95.3%; activity at 0.063 µM [3]: 85.5%; activity at 0.125 µM [3]: 96.1%; activity at 0.313 µM [3]: 69.9%; activity at 0.625 µM [3]: 33.2%; activity at 1.5 µM [3]: 33.2%; activity at 3 µM [3]: 8.58%; activity at 15 µM [3]: 3.26%; activity at 37.5 µM [3]: 1.04%; activity at 75 µM [3]: 3.35%; IC50 [3, 6]: 540 nM |
| Clc1ccc(SCCCCn2cnc3ccccc32)cc1 [Compound 7925515] | 8020 | 102 | 97.1 | 96.1 | 95.6 | 88.9 | 95.1 | 90.6 | 95.8 | 98.1 | 94.7 | 97.6 | 86.3 | 74.8 | 26.8 | 5.44 | 0.90 | 6740 | 950 | -0.0223 | activity at 75 µM [1]: 2.46%; activity at 0.0001 µM [3]: 90.8%; activity at 0.0005 µM [3]: 89.5%; activity at 0.001 µM [3]: 93.5%; activity at 0.0025 µM [3]: 93.3%; activity at 0.005 µM [3]: 91%; activity at 0.013 µM [3]: 90.5%; activity at 0.025 µM [3]: 86.2%; activity at 0.063 µM [3]: 83.9%; activity at 0.125 µM [3]: 76.1%; activity at 0.313 µM [3]: 69.1%; activity at 0.625 µM [3]: 60.1%; activity at 1.5 µM [3]: 39.1%; activity at 3 µM [3]: 22%; activity at 15 µM [3]: 10.5%; activity at 37.5 µM [3]: 7.84%; activity at 75 µM [3]: 5.86%; IC50 [3, 7]: 950 nM; IC50 [3, 6]: 950 nM |
| Cc1nc2ccccc2n1Cc1ccc(Cl)c(Cl)c1 [Compound 5655567] | 1170 | 91.2 | 90.2 | 95.5 | 94.9 | 95.5 | 85.5 | 82.4 | 79.8 | 78.8 | 62.7 | 60.2 | 41.5 | 23.2 | 1.19 | 0.14 | 0.07 | 8260 | 470 | -0.33 | activity at 75 µM [1]: 0.62%; activity at 0.0001 µM [3]: 86.1%; activity at 0.0005 µM [3]: 92.1%; activity at 0.001 µM [3]: 93.5%; activity at 0.0025 µM [3]: 93.8%; activity at 0.005 µM [3]: 90.5%; activity at 0.013 µM [3]: 90.4%; activity at 0.025 µM [3]: 78.8%; activity at 0.063 µM [3]: 76.6%; activity at 0.125 µM [3]: 72.5%; activity at 0.313 µM [3]: 39.7%; activity at 0.625 µM [3]: 49.3%; activity at 1.5 µM [3]: 25.2%; activity at 3 µM [3]: 11.5%; activity at 15 µM [3]: 0.44%; activity at 37.5 µM [3]: 0.7%; activity at 75 µM [3]: 0.75%; IC50 [3, 7]: 470 nM; IC50 [3, 6]: 470 nM |
| CCn1c(C(C)c2ccc(CC(C)C)cc2)nc2ccccc21 (centres unmarked) [STK951902] | 12500 | – | – | – | – | – | – | – | – | – | – | – | – | – | – | – | 1.10 | 8700 | 1830 | 0.26 | IC50 [3, 7]: 1830 nM; IC50 [3, 6]: 1830 nM |
| CC(C)Oc1cccc(OCCn2cnc3ccccc32)c1 [Compound 7926496] | – | 89.9 | 91.2 | 91.7 | 85.5 | 94.5 | 90.6 | 91.4 | 86 | 80.2 | 76.3 | 69.4 | 53.2 | 36 | 9.56 | 1.81 | 0.34 | 23000 | 6200 | 0.79 | IC50 [1]: 2190 nM; activity at 75 µM [1]: 1.89%; activity at 0.0001 µM [3]: 80%; activity at 0.0005 µM [3]: 92.9%; activity at 0.001 µM [3]: 87.5%; activity at 0.0025 µM [3]: 88.5%; activity at 0.005 µM [3]: 89.3%; activity at 0.013 µM [3]: 88.3%; activity at 0.025 µM [3]: 81.7%; activity at 0.063 µM [3]: 79.5%; activity at 0.125 µM [3]: 81.6%; activity at 0.313 µM [3]: 76.9%; activity at 0.625 µM [3]: 83.9%; activity at 1.5 µM [3]: 76.4%; activity at 3 µM [3]: 65%; activity at 15 µM [3]: 17.8%; activity at 37.5 µM [3]: 0.13%; activity at 75 µM [3]: 0%; IC50 ([3]; wild-type C. elegans mitochondria, read-out: C. elegans Complex I IC50): 6200 nM |
